Data as given in patent publication US6380177B1, “LPA analogs as agonists of the Edg2 LPA receptor” (Atairgin Technologies, Inc., priority 1999, dated 2002).
“Also recorded” adds a separate entry of the source.

Legend:
[1] = target: T1, Edg2 receptor (Homo sapiens, UniProt Q92633); conditions: cited from earlier work; for activation of FUS1::lacZ (previously known): yeast expressing the Edg2 receptor, previously known results
T1 construct: expressed in transfected cells; host or cells: Saccharomyces cerevisiae JEY5 + pJE15

[2] = target: T1, Edg2 receptor; assay: FUS1::lacZ reporter assay in yeast expressing the Edg2 receptor; assay type: cell-based; conditions: for activation of FUS1::lacZ by 18:1 analogs (FIG. 4): 200 μM LPA or LPA analog, 18:1 acyl LPA as 100%
From the text: A yeast expressing the Edg2 receptor is one way to avoid such problems of multiple receptors. Edg2 has been functionally expressed in the yeast Saccharomyces cerevisiae and provides a facile system with which to analyze this particular receptor. Edg2 couples to the yeast pheromone response pathway selectively in response to exogenously added LPA and activates two easily assayed reporter genes, lacZ and HIS3, that are fused to the pheromone-inducible FUS1 promoter. […] Although the yeast assay is relatively insensitive to LPA compared with mammalian signaling events (the yeast assay has an E.C.50 of 20 μM), yeast offers the advantage of specificity; the induction of FUS1::lacZ by LPA is absolutely dependent on the Edg2 receptor being expressed.
LacZ assays in response to lysophosphatidic acid and LPA analogs- JEY5+pJE15 was grown on SC media containing either 2% galactose or 2% glucose lacking uracil to an approximate O.D. of 0.1-0.5 prior to the addition of lipid or α-factor. Acyl-LPA chain length analogs; 6:0, 10:0, 14:0, 16:0, 18:0, 18:1 and 24:1 (Avanti Polar Lipids) were stored dissolved in chloroform and dried down under vacuum immediately prior to experiments and resuspended in BBS/EDTA (50 mM NH4HCO3, 104 mM NaCl, 250 μM EDTA2Na pH 7.63) at 20 mM with sonication until the solution was clear. The other analogs that were custom synthesized for this report were stored in 100% ethanol at −20° C., dried and resuspended in BBS/EDTA immediately prior to use. Analogs not having a phosphate were stored in 100% DMSO and added directly to the yeast culture. […] Cells were grown for 7 hours prior to assaying at which time 100 μl of yeast culture were then added to […] assay buffer (60 mM Na2HPO4, 40 mM NaH2PO4, 10 mM KCl, 0.1 mM MgSO4, pH 7.0 plus 2.7 mL β-mercaptoethanol per liter) plus 50 μl 0.1% SDS+three drops Chloroform. Cells were vortexed for 10 seconds and incubated for 5 minutes at 28° C. 200 μl of 4mg/ml o-nitrophenol-β-D-galactopyranoside (ONPG, Sigma) was added and the reaction was incubated 30 minutes at 28° C. The assay was stopped by the addition of 500 μl 1M Na2CO3. Color development was measured at A420 and normalized to A600. Units were expressed as Miller Units. Competition assays between 18:1 acyl-LPA and the short chain analogs were essentially performed in the same manner except that both lipids were added simultaneously and the yeast was allowed to grow for the standard seven-hour time period. ERK immune complex kinase assays- C3H/10T½ cells were cultured in Basal Medium Eagle (BME, Gibco)+10% heat inactivated fetal calf serum until quiescent in 6 cm dishes. Cultures were serum starved for 18 hours in BME and stimulated with LPA or an LPA analog for 5 minutes. Dishes were placed on ice, washed with ice cold PBS and lysed in 500 μL lysis buffer (20 mM Tris pH8.0, 137 mM NaCl, 1mM EGTA, 1% Triton X-100, 10% glycerol, 15 mM MgCl2, 1 mM NaVO4, 50 mM NaF, 1mM Pefabloc, 20 μM Leupeptin, 10 μg/mL Aprotinin). To 200 μg total protein, 2 μL anti-ERK1 and 2 μL anti-ERK2 (Santa Cruz) plus 20 μL protein G-agarose beads (Boehringer-Mannheim, 50% slurry) were added and incubated with continuous rocking for two hours at 4° C. The agarose bead-ERK immune complexes were washed twice with 1mL lysis buffer then once in 1mL kinase buffer (30 mM Tris pH 8.0, 20 mM MgCl2, 2 mM MnCl2) and then drained to dryness with a fine gauge Hamilton syringe. The kinase reaction was started by adding 30 μL kinase buffer containing 2 μg myelin basic protein (MBP, Sigma), 10 μM cold ATP and 2.5 μCi [^32P]γ-ATP (Amersham). The reaction was incubated for 25 minutes at 30° C. and then stopped by the addition of 10 μL hot 4×-sample buffer. The phosphorylated MBP was resolved on a 14% SDS-PAGE gel (Novex), stained, dried and the Coomassie Brilliant Blue-stained band was excise and counted on a liquid scintillation counter (Beckman).

[3] = test system: ERK1 and ERK2; assay: ERK immune complex kinase assay in C3H/10T½ fibroblasts; assay type: cell-based, Murine; conditions: C3H/10T½ fibroblasts treated with 10M analogue, stimulated 5 minutes
Method: Since Edg2 couples to Gpa1, this receptor could also couple to Gi in mammalian cells as well. […] Murine C3H/10T½ fibroblasts were treated with […] analogue and assayed for induction of ERK½ activity. […] The structural requirements of LPA with respect to ERK activation are quite different from the yeast Edg2 lacZ reporter assay. For example, the hydroxyl on the sn-2 carbon of the glycerol can be substituted with little effect in the Edg2-mediated activation of FUS1::lacZ whereas in ERK activation, loss of this hydroxyl almost completely abolishes activity.
LacZ assays in response to lysophosphatidic acid and LPA analogs- JEY5+pJE15 was grown on SC media containing either 2% galactose or 2% glucose lacking uracil to an approximate O.D. of 0.1-0.5 prior to the addition of lipid or α-factor. […] Color development was measured at A420 and normalized to A600. Units were expressed as Miller Units. […] The phosphorylated MBP was resolved on a 14% SDS-PAGE gel (Novex), stained, dried and the Coomassie Brilliant Blue-stained band was excise and counted on a liquid scintillation counter (Beckman).

[4] = test system: MDA MB 231 cells; conditions: cited from earlier work
[5] = test system: MDA MB 231 cells; conditions: cited from earlier work; remark: listed apart in the source
[6] = test system: ERK; assay: ERK activity in A549 lung carcinoma overexpressing Edg2 mRNA; assay type: cell-based; conditions: overexpresses Edg2 mRNA
From the text: Edg2 is not involved in the activation of the MAPKinase ERK. This is somewhat surprising since Edg2 coupled to the endogenous Saccharomyces G-protein, it was reasonable to conclude that Edg2 may couple to mammalian Gi heterotrimeric G-proteins. If this were true, then Edg2 would activate ERK, which is activated by LPA in a pertusis toxin-dependent manner. However, the SAR of LPA for ERK activation is completely different from the SAR of LPA-mediated activation of FUS1::lacZ and calcium mobilization. It is unlikely that expressing this receptor in yeast has changed its ligand binding characteristics. The somatostatin 2A receptor when expressed in yeast maintains it's binding profiles when compared with mammalian cells.

T1 sequence (Q92633 whole entry): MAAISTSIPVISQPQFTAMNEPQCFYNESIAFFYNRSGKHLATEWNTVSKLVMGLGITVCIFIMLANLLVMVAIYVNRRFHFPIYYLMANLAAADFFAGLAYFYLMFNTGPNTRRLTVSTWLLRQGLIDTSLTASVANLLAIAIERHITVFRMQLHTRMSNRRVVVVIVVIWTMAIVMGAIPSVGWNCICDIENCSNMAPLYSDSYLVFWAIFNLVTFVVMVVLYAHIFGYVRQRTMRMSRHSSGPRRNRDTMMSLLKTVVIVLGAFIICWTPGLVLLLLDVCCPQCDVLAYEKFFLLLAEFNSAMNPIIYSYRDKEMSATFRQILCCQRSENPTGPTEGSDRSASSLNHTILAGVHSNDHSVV

Compound | activation of FUS1::lacZ (previously known) [1] | activation of FUS1::lacZ by 18:1 analogs (FIG. 4) [2] | also measured
CCCCCC(=O)OC[C@@H](O)COP(=O)(O)O [Compound 1] | inactive | – | –
CCCCCCCC/C=C\CCCCCCCC(=O)OCCCO [Compound 10, 3-Hydroxypropyl oleate] | – | still retained some lacZ activity | –
CCCCCCCC/C=C\CCCCCCCC(=O)OCCCOP(=O)(O)O [Compound 12, 1-(3-propyl oleoate) phosphate] | – | retained some FUS1::lacZ activity; also recorded: increased activity significantly; also recorded: does activate FUS1::lacZ | activation of ERK½ (FIG. 5) [3]: does not activate ERK; inhibition of cAMP accumulation [4]: does not inhibit cAMP accumulation; calcium mobilization [5]: only slightly mobilizes calcium
CCCCCCCC/C=C\CCCCCCCC(=O)OCC(Br)COP(=O)(O)O (racemic) [Compound 23, 3-O-Oleoyl-2-deoxy-2-bromo-rac-glycero-1-phosphate] | – | retained some FUS1::lacZ activity | –
O-acyl-2-hydroxyl-sn-glycero-3-phosphate [LPA] | – | – | EC50 ([1]; yeast expressing Edg2, FUS1::lacZ reporter, read-out: E.C.50 of the yeast assay): 20 µM; stimulation of ERK activity [6]: does not stimulate ERK activity
CCCCCCCCCCCCCC(=O)OC[C@@H](O)COP(=O)(O)O [Compound 3, reference compound] | – | – | activation of FUS1::lacZ, dependence on acyl chain length (FIG. 2) ([2]; yeast expressing the Edg2 receptor, acyl-LPA chain length analogs): inactive
CCCCCCCC/C=C\CCCCCCCCOCCCOP(=O)(OC)OC [Compound 29, Dimethyl 3-oleyloxypropyl-1-phosphate] | – | inactive | –
CCCCCCCC/C=C\CCCCCCCC(=O)OCC(COP(=O)(OC)OC)OC (racemic) [Compound 18, Dimethyl 3-O-oleoyl-2-O-methyl-rac-glycero-1-phosphate] | – | had less lacZ activity | –
CCCCCCCC/C=C\CCCCCCCC(=O)OCCCOP(=O)(OC)OC [Compound 11, Dimethyl 1-(3-propyl oleoate) phosphate] | – | had less lacZ activity | –
CCCCCCCCCCCCCCCCCC(=O)OC[C@@H](O)COP(=O)(O)O [Compound 5] | significant activity | – | –
CCCCCCCC/C=C\CCCCCCCCOCC(O)COP(=O)(O)O (racemic) [Compound 26, 3-O-Oleyl-rac-glycero-1-phosphate] | – | inactive | activation of ERK½ (FIG. 5) [3]: can activate ERK almost as well as the ester form
CCCCCCCCCCCCCCCC(=O)OC[C@@H](O)COP(=O)(O)O [Compound 4] | significant activity | – | –
CCCCCCCC/C=C\CCCCCCCCOCC(COP(=O)(O)O)OC (racemic) [Compound 36, 3-O-Oleyl-2-O-methyl-rac-glycero-1-phosphate] | – | inactive | –
CCCCCCCCCC(=O)OC[C@@H](O)COP(=O)(O)O [Compound 2] | inactive | – | –
CCCCCCCC/C=C\CCCCCCCC(=O)OC[C@@H](O)COP(=O)(O)O [Compound 6] | most active | – | –
CCCCCCCC/C=C\CCCCCCCC(=O)OCC(CO)OC (racemic) [Compound 17, 1-O-Oleoyl-2-O-methyl-rac-glycerol] | – | still retained some lacZ activity | –
